Measurements taken from ChEMBL document CHEMBL1201862, “PubChem BioAssay data set” (2004).
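How tested: cells in 96-well plates exposed to compound for 48 hours at five concentrations. GI50 = concentration required for 50% inhibition of growth.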 The source made the active and inactive calls. No stated cut-off is given here; in the data, active = GI50 up to about 1.1 µM and inactive = higher.

Legend:
Assay in all cases: NCI-60 cell line screen, 48 h
786-0 = test system: 786-0
ACHN = test system: ACHN
EKVX = test system: EKVX
HL-60 = test system: HL-60
HOP-92 = test system: HOP-92
KM12 = test system: KM12
MCF7 = test system: MCF7
MDA-MB-231 = test system: MDA-MB-231
MDA-MB-435 = test system: MDA-MB-435
NCI-H460 = test system: NCI-H460
NCI-H522 = test system: NCI-H522
NCI/ADR-RES = test system: NCI/ADR-RES
OVCAR-5 = test system: OVCAR-5
SNB-19 = test system: SNB-19
SR = test system: SR
SW-620 = test system: SW-620
U-251 = test system: U-251
UACC-257 = test system: UACC-257
UACC-62 = test system: UACC-62
UO-31 = test system: UO-31

SMILES	GI50 (786-0)	GI50 (ACHN)	GI50 (EKVX)	GI50 (HL-60)	GI50 (HOP-92)	GI50 (KM12)	GI50 (MCF7)	GI50 (MDA-MB-231)	GI50 (MDA-MB-435)	GI50 (NCI-H460)	GI50 (NCI-H522)	GI50 (NCI/ADR-RES)	GI50 (OVCAR-5)	GI50 (SNB-19)	GI50 (SR)	GI50 (SW-620)	GI50 (U-251)	GI50 (UACC-257)	GI50 (UACC-62)	GI50 (UO-31)
O=[N+]([O-])c1ccc(NN/N=N/c2ccc(-c3nc4ccccc4[nH]3)cc2)c([N+](=O)[O-])c1	36.3 µM (inactive)	19.4 µM (inactive)	17.4 µM (inactive)	13.8 µM (inactive)	43.8 µM (inactive)	31.9 µM (inactive)	4.27 µM (inactive)	> 100 µM (inactive)	54 µM (inactive)	9.44 µM (inactive)	17.9 µM (inactive)	45.7 µM (inactive)	> 100 µM (inactive)	> 100 µM (inactive)	2.74 µM (inactive)	68.5 µM (inactive)	53.7 µM (inactive)	76.7 µM (inactive)	4.06 µM (inactive)	84.1 µM (inactive)
CCCC(=O)OC(OC(=O)CCC)c1ccc([N+](=O)[O-])o1	18.3 µM (inactive)	20.5 µM (inactive)	26.1 µM (inactive)	26.3 µM (inactive)	22.9 µM (inactive)	37.6 µM (inactive)	16.9 µM (inactive)	27.5 µM (inactive)	20.7 µM (inactive)	> 100 µM (inactive)	13.4 µM (inactive)	39.2 µM (inactive)	21.8 µM (inactive)	> 100 µM (inactive)	18 µM (inactive)	20 µM (inactive)	34.3 µM (inactive)	21.4 µM (inactive)	20.9 µM (inactive)	21.1 µM (inactive)
CC#CC(O)(C(=O)OC1CCCN(C)C1)C1=CC=CCC1 (centres undefined)	> 100 µM (inactive)	> 100 µM (inactive)	> 100 µM (inactive)	> 100 µM (inactive)	> 100 µM (inactive)	> 100 µM (inactive)	> 100 µM (inactive)	> 100 µM (inactive)	> 100 µM (inactive)	> 100 µM (inactive)	> 100 µM (inactive)	0.49 µM (active)	> 100 µM (inactive)	> 100 µM (inactive)	> 100 µM (inactive)	> 100 µM (inactive)	> 100 µM (inactive)	> 100 µM (inactive)	> 100 µM (inactive)	> 100 µM (inactive)
C=CCC(C(=O)O)c1ccccc1 (centres undefined)	> 100 µM (inactive)	> 100 µM (inactive)	> 100 µM (inactive)	> 100 µM (inactive)	> 100 µM (inactive)	> 100 µM (inactive)	> 100 µM (inactive)	> 100 µM (inactive)	> 100 µM (inactive)	> 100 µM (inactive)	> 100 µM (inactive)	> 100 µM (inactive)	> 100 µM (inactive)	> 100 µM (inactive)	> 100 µM (inactive)	> 100 µM (inactive)	> 100 µM (inactive)	> 100 µM (inactive)	> 100 µM (inactive)	> 100 µM (inactive)
O=c1oc2ccc([N+](=O)[O-])cc2c(Nc2ccc3c(c2)Sc2ccccc2O3)c1[N+](=O)[O-]	20.3 µM (inactive)	27 µM (inactive)	25.9 µM (inactive)	18.6 µM (inactive)	16.3 µM (inactive)	21.5 µM (inactive)	22.1 µM (inactive)	18.6 µM (inactive)	30.8 µM (inactive)	20.2 µM (inactive)	17.6 µM (inactive)	29.5 µM (inactive)	22.1 µM (inactive)	17.9 µM (inactive)	22.5 µM (inactive)	30.3 µM (inactive)	17.5 µM (inactive)	23.2 µM (inactive)	15 µM (inactive)	22.6 µM (inactive)
O=C(CC(=O)Nc1ccccc1)NNC(Sc1ccccc1)c1cc(/N=N/c2ccc(Br)cc2)ccc1O (centres undefined)	0.802 µM (active)	2.47 µM (inactive)	8.83 µM (inactive)	0.356 µM (active)	4.51 µM (inactive)	4.07 µM (inactive)	1.78 µM (inactive)	2.24 µM (inactive)	4.28 µM (inactive)	0.773 µM (active)	4.81 µM (inactive)	1.26 µM (inactive)	7.98 µM (inactive)	> 10 µM (inactive)	0.353 µM (active)	0.931 µM (active)	6.31 µM (inactive)	4.29 µM (inactive)	2.09 µM (inactive)	2.29 µM (inactive)
CCCCCCCCCCCCc1ccsc1-c1ccc(-c2ccc(-c3sccc3CCCCCCCCCCCC)s2)s1	> 100 µM (inactive)	> 100 µM (inactive)	> 100 µM (inactive)	> 100 µM (inactive)	> 100 µM (inactive)	> 100 µM (inactive)	> 100 µM (inactive)	> 100 µM (inactive)	> 100 µM (inactive)	> 100 µM (inactive)	> 100 µM (inactive)	> 100 µM (inactive)	> 100 µM (inactive)	> 100 µM (inactive)	> 100 µM (inactive)	> 100 µM (inactive)	> 100 µM (inactive)	> 100 µM (inactive)	> 100 µM (inactive)	> 100 µM (inactive)
CC1=CC2=C(C(N)=O)C(=O)OC2(C)C(c2ccccc2)C1 (centres undefined)	> 100 µM (inactive)	> 100 µM (inactive)	> 100 µM (inactive)	> 100 µM (inactive)	> 100 µM (inactive)	> 100 µM (inactive)	> 100 µM (inactive)	> 100 µM (inactive)	> 100 µM (inactive)	> 100 µM (inactive)	> 100 µM (inactive)	> 100 µM (inactive)	> 100 µM (inactive)	> 100 µM (inactive)	> 100 µM (inactive)	> 100 µM (inactive)	> 100 µM (inactive)	> 100 µM (inactive)	> 100 µM (inactive)	> 100 µM (inactive)
O=C(NC(Nc1ccc(F)c(Cl)c1)(C(F)(F)F)C(F)(F)F)OCc1ccccc1	18.3 µM (inactive)	17.7 µM (inactive)	26.4 µM (inactive)	11.5 µM (inactive)	23.2 µM (inactive)	36.3 µM (inactive)	19.4 µM (inactive)	11.7 µM (inactive)	32.1 µM (inactive)	85.1 µM (inactive)	22.7 µM (inactive)	27.7 µM (inactive)	> 100 µM (inactive)	20.9 µM (inactive)	11 µM (inactive)	61.7 µM (inactive)	29.2 µM (inactive)	> 100 µM (inactive)	17.7 µM (inactive)	19.8 µM (inactive)
O=C1/C(=C\c2ccccc2)C(NC2CCCCC2)c2ccccc21 (centres undefined)	0.828 µM (active)	0.923 µM (active)	3.3 µM (inactive)	0.883 µM (active)	1.96 µM (inactive)	4.44 µM (inactive)	1.37 µM (inactive)	2.23 µM (inactive)	1.52 µM (inactive)	2.71 µM (inactive)	0.578 µM (active)	3.65 µM (inactive)	4.17 µM (inactive)	10.5 µM (inactive)	0.206 µM (active)	0.444 µM (active)	1.73 µM (inactive)	1.29 µM (inactive)	2.38 µM (inactive)	1.1 µM (active)
O=C1c2ccc3ccccc3c2CCC1N1CCCCC1 (centres undefined)	18 µM (inactive)	17.7 µM (inactive)	22.4 µM (inactive)	21.9 µM (inactive)	16.6 µM (inactive)	17.7 µM (inactive)	33.3 µM (inactive)	16.9 µM (inactive)	18 µM (inactive)	22 µM (inactive)	16.8 µM (inactive)	20.7 µM (inactive)	19.7 µM (inactive)	19.7 µM (inactive)	15.1 µM (inactive)	17.6 µM (inactive)	18.9 µM (inactive)	20.7 µM (inactive)	16.7 µM (inactive)	15.6 µM (inactive)
CCOC(=O)/C=C/C(Br)=C(Br)/C=C/C(=O)OCC	3.01 µM (inactive)	12.3 µM (inactive)	17.9 µM (inactive)	5.85 µM (inactive)	19.1 µM (inactive)	16.6 µM (inactive)	7.93 µM (inactive)	16.3 µM (inactive)	7.13 µM (inactive)	33.9 µM (inactive)	2.12 µM (inactive)	11.4 µM (inactive)	18.6 µM (inactive)	17.5 µM (inactive)	7.8 µM (inactive)		14.6 µM (inactive)	18.2 µM (inactive)	15.4 µM (inactive)	10.7 µM (inactive)
CNC(=O)c1nn[nH]c1O	> 100 µM (inactive)	> 100 µM (inactive)	> 100 µM (inactive)	> 100 µM (inactive)	> 100 µM (inactive)	> 100 µM (inactive)	> 100 µM (inactive)	> 100 µM (inactive)	> 100 µM (inactive)	> 10 µM (inactive)	> 100 µM (inactive)	> 100 µM (inactive)	> 100 µM (inactive)	> 100 µM (inactive)	> 100 µM (inactive)	> 100 µM (inactive)	> 100 µM (inactive)	> 100 µM (inactive)	> 100 µM (inactive)	> 100 µM (inactive)
CCN(CC)CCNc1ccc2nc(C)n3c4ccc(OC)cc4c(=O)c1c23	0.558 µM (active)	0.367 µM (active)	1.69 µM (inactive)	1.17 µM (inactive)	5.92 µM (inactive)	1.8 µM (inactive)	0.354 µM (active)	0.423 µM (active)	11.2 µM (inactive)	0.538 µM (active)	0.272 µM (active)	0.675 µM (active)	4.82 µM (inactive)	1.03 µM (active)	0.165 µM (active)	0.711 µM (active)	4.39 µM (inactive)	8.75 µM (inactive)	4.9 µM (inactive)	3.08 µM (inactive)
